The source of these data is US12648560B2, “Mosquito repellent composition and method for the preparation thereof” (priority 2019, dated 2026).

The test system of assay [1] is Aedes albopictus. As to the kind of experiment: Behavioural (blood-feeding) repellency test on feeders covered with pig intestinal skin. It counts as in vivo. The procedure: Testing was performed as to the activity of the compositions obtained by the method according to the invention on the behaviour of the tiger mosquito, Aedes albopictus.
The behavioural tests were carried out at the Montpellier Vectopôle, which is a research centre that collaborates with the WHO for the evaluation of insecticides in public health.
The tests were carried out on mosquitoes aged 5 to 9 days old after their evolution from pupae to adult.
In preparation for the experiment, the mosquitoes were […] on the day prior thereto, in order to promote their appetite for the test to occur the subsequent day.
Each cup contains a damp cotton. The female mosquitoes were removed from the cage making use of a tube that enables aspiration thereof. They were then introduced into each experiment cup (10 mosquitoes per cup).
The tests were carried out on plexiglass racks serving as supports for glass bells known as feeders. The latter are connected to each other by plastic pipes wherein water circulates at 37° C.
Pig intestinal skin was used to mimic human skin in the experiment. The pieces of intestinal skin are positioned and stretched over the feeders.
The repellent is diluted in ethyl alcohol (aka ethanol or EtOH) and is deposited on the skin using a micropipette and then spread over the entire surface. […] If the composition tested is a mixture of at least two compounds, one of which is PMD, the said composition is diluted in ethanol at a concentration of 0.02036 mg/μL, or else is diluted in ethanol until 0.02036 mg/μL of PMD is obtained.
The feeders are turned over, then 300 μL of sheep blood are placed in each feeder. The cups are inserted under each feeder.
Polystyrene plates are inserted between the lines of repellent so as to avoid possible interactions of odours. The duration of the experiment is one hour. The cups are then placed in a freezer at −20° C. for a period of 40 minutes. After freezing, the contents of one cup are placed between two sheets of paper, with the entirety thereof then being crushed with a plexiglass plate. The counting of the blood-fed (engorged) mosquitoes is done based on the number of red dots on the sheet of paper. The results are expressed as a percentage of repellency (100%-X % of blood-feeding). The percentage of blood-feeding is defined in relation to the EtOH negative control. DEET and commercial cis/trans PMD 75/25 at 200 mg/m^2 were used as positive controls.
The results obtained were statistically analysed using R software (R Development Core Team. R: A language and environment for statistical computing. R Foundation for Statistical Computing, Vienna, Austria. ISBN 3-900051-07-0, 2013) and represent the mean of 16 replicates. The percentage repellency values are presented as the mean±standard deviation. The R software also makes it possible to compare two percentage repellency values by means of calculating the quantity p. This quantity p is a probability.

Assay [2] relates to acetylcholinesterase. The following applies: enzyme of insects as also of mammals; cited from earlier work.

As for `CC1CCC(C(C)(C)O)C(O)C1` (mixture of isomers) [Commercial cis/trans PMD 75/25, p-menthane-3,8-diol], the “% Repellency” value is 51 ± 11% in assay [1] (Table 2 series, 200 mg/m^2 in EtOH, 1 h, mean ± SD); 55 ± 1% in assay [1] (Table 3 series, 200 mg/m^2 in EtOH, 1 h, mean ± SD); 31 ± 7% in assay [1] (Table 4 series, PMD at 200 mg/m^2 in EtOH, mean ± SD); 36 ± 1% in assay [1] (Table 5 series, PMD at 200 mg/m^2 in EtOH, mean ± SD); 48 ± 15% in assay [1] (Table 6 series, PMD at 200 mg/m^2 in EtOH, mean ± SD); 52 ± 12% in assay [1] (Table 7 series, PMD at 200 mg/m^2 in EtOH, mean ± SD). Moreover, in assay [1] (concentration in EtOH tantamount to 200 mg/m^2), the “ED 50 expressed as concentration” value amounted to 0.02036 mg/µL. Moreover, the “ED 50 (median effective dose)” value in assay [1] (repellency, dose on skin surface) turned out to be 200 mg/m^2.
On to `CCN(CC)C(=O)c1cccc(C)c1` [DEET, N,N diethyl-meta-toluamide], for which the “% Repellency” value in assay [1] (Table 2 series, 110 mg/m^2 in EtOH, 1 h, mean ± SD of 16 replicates) came out at 76 ± 9%; in assay [1] (Table 3 series, 110 mg/m^2 in EtOH, 1 h, mean ± SD), 56 ± 8%; in assay [1] (Table 4 series, 110 mg/m^2 in EtOH, mean ± SD), 39 ± 7%; in assay [1] (Table 5 series, 110 mg/m^2 in EtOH, mean ± SD), 49 ± 17%; in assay [1] (Table 6 series, 110 mg/m^2 in EtOH, mean ± SD), 73 ± 2%; in assay [1] (Table 7 series, 110 mg/m^2 in EtOH, mean ± SD) it was 43 ± 13%. The acetylcholinesterase inhibition entry in assay [2] is given as “inhibits”.
